Test results from ChEMBL document CHEMBL4004838, “Design and synthesis of novel phenyl -1, 4-beta-carboline-hybrid molecules as potential anticancer agents” (Eur J Med Chem, 2017).

tested on: SK-MEL-5; test: Growth inhibition of human SK-MEL-5 cells assessed as cell growth at 10^-5 M incubated for 48 hrs by sulforhodamine B assay relative to control; format: functional; conditions: SK-MEL-5, 48 h, read-out: Activity

Compound | growth at 10 µM [%]
Cc1ccc(S(=O)(=O)N2CCc3c([nH]c4ccccc34)C2c2ccc(-c3nc4ccccc4[nH]3)cc2)cc1 (configuration not stated) | 89.8

tested on: RXF 393; test: Growth inhibition of human RXF393 cells assessed as cell growth at 10^-5 M incubated for 48 hrs by sulforhodamine B assay relative to control; format: functional; conditions: RXF 393, 48 h, read-out: Activity

Compound | growth at 10 µM [%]
Cc1ccc(S(=O)(=O)N2CCc3c([nH]c4ccccc34)C2c2ccc(-c3nc4ccccc4[nH]3)cc2)cc1 (configuration not stated) | 96.4

tested on: SW-620; test: Growth inhibition of human SW620 cells assessed as cell growth at 10^-5 M incubated for 48 hrs by sulforhodamine B assay relative to control; format: functional; conditions: SW-620, 48 h, read-out: Activity

Compound | growth at 10 µM [%]
Cc1ccc(S(=O)(=O)N2CCc3c([nH]c4ccccc34)C2c2ccc(-c3nc4ccccc4[nH]3)cc2)cc1 (configuration not stated) | 90.1

tested on: IGROV-1; test: Growth inhibition of human IGROV1 cells assessed as cell growth at 10^-5 M incubated for 48 hrs by sulforhodamine B assay relative to control; format: functional; conditions: IGROV-1, 48 h, read-out: Activity

Compound | growth at 10 µM [%]
Cc1ccc(S(=O)(=O)N2CCc3c([nH]c4ccccc34)C2c2ccc(-c3nc4ccccc4[nH]3)cc2)cc1 (configuration not stated) | 86.5

tested on: SK-OV-3; test: Growth inhibition of human SKOV3 cells assessed as cell growth at 10^-5 M incubated for 48 hrs by sulforhodamine B assay relative to control; format: functional; conditions: SK-OV-3, 48 h, read-out: Activity

Compound | growth at 10 µM [%]
Cc1ccc(S(=O)(=O)N2CCc3c([nH]c4ccccc34)C2c2ccc(-c3nc4ccccc4[nH]3)cc2)cc1 (configuration not stated) | 88.5

tested on: UACC-257; test: Growth inhibition of human UACC257 cells assessed as cell growth at 10^-5 M incubated for 48 hrs by sulforhodamine B assay relative to control; format: functional; conditions: UACC-257, 48 h, read-out: Activity

Compound | growth at 10 µM [%]
Cc1ccc(S(=O)(=O)N2CCc3c([nH]c4ccccc34)C2c2ccc(-c3nc4ccccc4[nH]3)cc2)cc1 (configuration not stated) | 102

tested on: SK-MEL-28; test: Growth inhibition of human SK-MEL-28 cells assessed as cell growth at 10^-5 M incubated for 48 hrs by sulforhodamine B assay relative to control; format: functional; conditions: SK-MEL-28, 48 h, read-out: Activity

Compound | growth at 10 µM [%]
Cc1ccc(S(=O)(=O)N2CCc3c([nH]c4ccccc34)C2c2ccc(-c3nc4ccccc4[nH]3)cc2)cc1 (configuration not stated) | 86

tested on: PC-3; test: Growth inhibition of human PC3 cells assessed as cell growth at 10^-5 M incubated for 48 hrs by sulforhodamine B assay relative to control; format: functional; conditions: PC-3, 48 h, read-out: Activity

Compound | growth at 10 µM [%]
Cc1ccc(S(=O)(=O)N2CCc3c([nH]c4ccccc34)C2c2ccc(-c3nc4ccccc4[nH]3)cc2)cc1 (configuration not stated) | 84.2

tested on: NCI-H522; test: Growth inhibition of human NCI-H522 cells assessed as cell growth at 10^-5 M incubated for 48 hrs by sulforhodamine B assay relative to control; format: functional; conditions: NCI-H522, 48 h, read-out: Activity

Compound | growth at 10 µM [%]
Cc1ccc(S(=O)(=O)N2CCc3c([nH]c4ccccc34)C2c2ccc(-c3nc4ccccc4[nH]3)cc2)cc1 (configuration not stated) | 60.3

tested on: CAKI-1; test: Growth inhibition of human Caki1 cells assessed as cell growth at 10^-5 M incubated for 48 hrs by sulforhodamine B assay relative to control; format: functional; conditions: CAKI-1, 48 h, read-out: Activity

Compound | growth at 10 µM [%]
Cc1ccc(S(=O)(=O)N2CCc3c([nH]c4ccccc34)C2c2ccc(-c3nc4ccccc4[nH]3)cc2)cc1 (configuration not stated) | 73.5

tested on: A549; test: Growth inhibition of human A549/ATCC cells assessed as cell growth at 10^-5 M incubated for 48 hrs by sulforhodamine B assay relative to control; format: functional; conditions: A549, 48 h, read-out: Activity

Compound | growth at 10 µM [%]
Cc1ccc(S(=O)(=O)N2CCc3c([nH]c4ccccc34)C2c2ccc(-c3nc4ccccc4[nH]3)cc2)cc1 (configuration not stated) | 92.8

tested on: M14; test: Growth inhibition of human M14 cells assessed as cell growth at 10^-5 M incubated for 48 hrs by sulforhodamine B assay relative to control; format: functional; conditions: M14, 48 h, read-out: Activity

Compound | growth at 10 µM [%]
Cc1ccc(S(=O)(=O)N2CCc3c([nH]c4ccccc34)C2c2ccc(-c3nc4ccccc4[nH]3)cc2)cc1 (configuration not stated) | 85.8

tested on: KM12; test: Growth inhibition of human KM12 cells assessed as cell growth at 10^-5 M incubated for 48 hrs by sulforhodamine B assay relative to control; format: functional; conditions: KM12, 48 h, read-out: Activity

Compound | growth at 10 µM [%]
Cc1ccc(S(=O)(=O)N2CCc3c([nH]c4ccccc34)C2c2ccc(-c3nc4ccccc4[nH]3)cc2)cc1 (configuration not stated) | 86.8

tested on: SNB-19; test: Growth inhibition of human SNB19 cells assessed as cell growth at 10^-5 M incubated for 48 hrs by sulforhodamine B assay relative to control; format: functional; conditions: SNB-19, 48 h, read-out: Activity

Compound | growth at 10 µM [%]
Cc1ccc(S(=O)(=O)N2CCc3c([nH]c4ccccc34)C2c2ccc(-c3nc4ccccc4[nH]3)cc2)cc1 (configuration not stated) | 91.3

tested on: SF-268; test: Growth inhibition of human SF268 cells assessed as cell growth at 10^-5 M incubated for 48 hrs by sulforhodamine B assay relative to control; format: functional; conditions: SF-268, 48 h, read-out: Activity

Compound | growth at 10 µM [%]
Cc1ccc(S(=O)(=O)N2CCc3c([nH]c4ccccc34)C2c2ccc(-c3nc4ccccc4[nH]3)cc2)cc1 (configuration not stated) | 91.3

tested on: HOP-62; test: Growth inhibition of human HOP62 cells assessed as cell growth at 10^-5 M incubated for 48 hrs by sulforhodamine B assay relative to control; format: functional; conditions: HOP-62, 48 h, read-out: Activity

Compound | growth at 10 µM [%]
Cc1ccc(S(=O)(=O)N2CCc3c([nH]c4ccccc34)C2c2ccc(-c3nc4ccccc4[nH]3)cc2)cc1 (configuration not stated) | 94.3

tested on: MDA-MB-231; test: Growth inhibition of human MDA-MB-231 cells assessed as cell growth at 10^-5 M incubated for 48 hrs by sulforhodamine B assay relative to control; format: functional; conditions: MDA-MB-231, 48 h, read-out: Activity

Compound | growth at 10 µM [%]
Cc1ccc(S(=O)(=O)N2CCc3c([nH]c4ccccc34)C2c2ccc(-c3nc4ccccc4[nH]3)cc2)cc1 (configuration not stated) | 73.4

tested on: EKVX; test: Growth inhibition of human EKVX cells assessed as cell growth at 10^-5 M incubated for 48 hrs by sulforhodamine B assay relative to control; format: functional; conditions: read-out: Activity

Compound | growth at 10 µM [%]
Cc1ccc(S(=O)(=O)N2CCc3c([nH]c4ccccc34)C2c2ccc(-c3nc4ccccc4[nH]3)cc2)cc1 (configuration not stated) | 87.4

tested on: A498; test: Growth inhibition of human A498 cells assessed as cell growth at 10^-5 M incubated for 48 hrs by sulforhodamine B assay relative to control; format: functional; conditions: A498, 48 h, read-out: Activity

Compound | growth at 10 µM [%]
Cc1ccc(S(=O)(=O)N2CCc3c([nH]c4ccccc34)C2c2ccc(-c3nc4ccccc4[nH]3)cc2)cc1 (configuration not stated) | 84.6

tested on: MCF7; test: Growth inhibition of human MCF7 cells assessed as cell growth at 10^-5 M incubated for 48 hrs by sulforhodamine B assay relative to control; format: functional; conditions: MCF7, 48 h, read-out: Activity

Compound | growth at 10 µM [%]
Cc1ccc(S(=O)(=O)N2CCc3c([nH]c4ccccc34)C2c2ccc(-c3nc4ccccc4[nH]3)cc2)cc1 (configuration not stated) | 92.4

tested on: HCT-116; test: Growth inhibition of human HCT116 cells assessed as cell growth at 10^-5 M incubated for 48 hrs by sulforhodamine B assay relative to control; format: functional; conditions: HCT-116, 48 h, read-out: Activity

Compound | growth at 10 µM [%]
Cc1ccc(S(=O)(=O)N2CCc3c([nH]c4ccccc34)C2c2ccc(-c3nc4ccccc4[nH]3)cc2)cc1 (configuration not stated) | 88.3

tested on: SF-539; test: Growth inhibition of human SF539 cells assessed as cell growth at 10^-5 M incubated for 48 hrs by sulforhodamine B assay relative to control; format: functional; conditions: SF-539, 48 h, read-out: Activity

Compound | growth at 10 µM [%]
Cc1ccc(S(=O)(=O)N2CCc3c([nH]c4ccccc34)C2c2ccc(-c3nc4ccccc4[nH]3)cc2)cc1 (configuration not stated) | 90.2

tested on: SF-295; test: Growth inhibition of human SF295 cells assessed as cell growth at 10^-5 M incubated for 48 hrs by sulforhodamine B assay relative to control; format: functional; conditions: SF-295, 48 h, read-out: Activity

Compound | growth at 10 µM [%]
Cc1ccc(S(=O)(=O)N2CCc3c([nH]c4ccccc34)C2c2ccc(-c3nc4ccccc4[nH]3)cc2)cc1 (configuration not stated) | 91.9

tested on: NCI-H460; test: Growth inhibition of human NCI-H460 cells assessed as cell growth at 10^-5 M incubated for 48 hrs by sulforhodamine B assay relative to control; format: functional; conditions: NCI-H460, 48 h, read-out: Activity

Compound | growth at 10 µM [%]
Cc1ccc(S(=O)(=O)N2CCc3c([nH]c4ccccc34)C2c2ccc(-c3nc4ccccc4[nH]3)cc2)cc1 (configuration not stated) | 93

tested on: OVCAR-8; test: Growth inhibition of human OVCAR8 cells assessed as cell growth at 10^-5 M incubated for 48 hrs by sulforhodamine B assay relative to control; format: functional; conditions: OVCAR-8, 48 h, read-out: Activity

Compound | growth at 10 µM [%]
Cc1ccc(S(=O)(=O)N2CCc3c([nH]c4ccccc34)C2c2ccc(-c3nc4ccccc4[nH]3)cc2)cc1 (configuration not stated) | 98.2

tested on: SN12C; test: Growth inhibition of human SN12C cells assessed as cell growth at 10^-5 M incubated for 48 hrs by sulforhodamine B assay relative to control; format: functional; conditions: read-out: Activity

Compound | growth at 10 µM [%]
Cc1ccc(S(=O)(=O)N2CCc3c([nH]c4ccccc34)C2c2ccc(-c3nc4ccccc4[nH]3)cc2)cc1 (configuration not stated) | 87.7

tested on: RPMI-8226; test: Growth inhibition of human RPMI8226 cells assessed as cell growth at 10^-5 M incubated for 48 hrs by sulforhodamine B assay relative to control; format: functional; conditions: RPMI-8226, 48 h, read-out: Activity

Compound | growth at 10 µM [%]
Cc1ccc(S(=O)(=O)N2CCc3c([nH]c4ccccc34)C2c2ccc(-c3nc4ccccc4[nH]3)cc2)cc1 (configuration not stated) | 99.1
